# Reference: patent US12540131B2 (Merck Sharp & Dohme LLC, priority 2019, dated 2026)
# Target: GST tagged truncated human mutant G2019S LRRK2 (Homo sapiens (Human), UniProt Q5S007, G2019S)
# Experiment: LRRK2 Km ATP LanthaScreen Assay
# Type: biochemical
# Conditions: G2019S LRRK2, 134 μM ATP (Km ATP), mean values
# Method in brief: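 Enzyme (GST-tagged, truncated) was preincubated with compound for 15 min at RT in 50 mM Tris pH 8.5, 10 mM MgCl2, 0.01% Brij-35, 1 mM EGTA, 2 mM DTT and 0.05 mM orthovanadate. Fluorescein-LRRKtide and 134 μM ATP (Km) were then added for 90 min. EDTA and Tb-anti-pERM antibody stopped the reaction; the TR-FRET 520/495 ratio gave 4-parameter IC50s, reported as mean pIC50.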
# GST tagged truncated human mutant G2019S LRRK2, sequence (Q5S007 970-2527 G2019S): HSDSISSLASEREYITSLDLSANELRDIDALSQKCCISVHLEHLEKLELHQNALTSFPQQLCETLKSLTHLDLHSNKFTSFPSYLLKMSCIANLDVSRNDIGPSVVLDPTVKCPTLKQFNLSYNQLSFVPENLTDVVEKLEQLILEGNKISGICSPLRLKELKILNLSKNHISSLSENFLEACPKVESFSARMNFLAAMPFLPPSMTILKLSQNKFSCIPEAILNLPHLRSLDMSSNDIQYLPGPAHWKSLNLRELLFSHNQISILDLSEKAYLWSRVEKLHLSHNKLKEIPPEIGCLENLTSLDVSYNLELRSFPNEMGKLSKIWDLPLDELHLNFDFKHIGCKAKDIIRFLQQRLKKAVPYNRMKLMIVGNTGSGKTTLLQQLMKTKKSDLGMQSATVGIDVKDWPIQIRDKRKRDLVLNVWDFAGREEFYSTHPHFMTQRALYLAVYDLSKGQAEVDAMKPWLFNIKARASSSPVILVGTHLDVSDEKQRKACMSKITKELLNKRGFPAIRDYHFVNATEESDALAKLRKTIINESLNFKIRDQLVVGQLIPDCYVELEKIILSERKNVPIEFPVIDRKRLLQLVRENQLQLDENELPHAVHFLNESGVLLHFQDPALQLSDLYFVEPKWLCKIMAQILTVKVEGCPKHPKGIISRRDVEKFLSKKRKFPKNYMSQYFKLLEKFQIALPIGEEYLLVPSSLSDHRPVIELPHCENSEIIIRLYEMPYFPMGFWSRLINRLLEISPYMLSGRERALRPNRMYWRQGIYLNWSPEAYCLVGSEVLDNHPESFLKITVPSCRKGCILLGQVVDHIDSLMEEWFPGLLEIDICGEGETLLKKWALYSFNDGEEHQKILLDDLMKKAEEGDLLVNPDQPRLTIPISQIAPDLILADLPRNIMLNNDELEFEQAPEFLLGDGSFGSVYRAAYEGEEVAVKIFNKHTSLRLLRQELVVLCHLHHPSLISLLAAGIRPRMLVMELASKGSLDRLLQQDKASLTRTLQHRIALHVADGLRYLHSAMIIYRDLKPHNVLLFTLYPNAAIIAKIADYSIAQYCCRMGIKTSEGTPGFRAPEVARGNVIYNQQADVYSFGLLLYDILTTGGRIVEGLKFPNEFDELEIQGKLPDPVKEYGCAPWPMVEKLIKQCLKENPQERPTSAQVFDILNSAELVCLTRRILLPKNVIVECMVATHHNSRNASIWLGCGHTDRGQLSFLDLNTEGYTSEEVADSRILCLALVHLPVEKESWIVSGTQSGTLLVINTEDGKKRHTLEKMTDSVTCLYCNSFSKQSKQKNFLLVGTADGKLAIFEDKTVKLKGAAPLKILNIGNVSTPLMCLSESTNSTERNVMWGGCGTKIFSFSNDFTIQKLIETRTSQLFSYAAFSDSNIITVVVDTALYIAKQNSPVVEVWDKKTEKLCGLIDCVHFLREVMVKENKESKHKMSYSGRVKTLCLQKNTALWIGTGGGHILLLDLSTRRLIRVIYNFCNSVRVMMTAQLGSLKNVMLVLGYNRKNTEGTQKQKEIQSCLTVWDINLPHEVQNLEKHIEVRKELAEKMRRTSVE
row,Compound,LRRK2 pIC50
1,"CC1OCC1N1CC[C@H](c2cc3nc(Nc4cnn(CC(C)(C)O)c4Cl)ncc3cc2Cl)[C@@H](F)C1 (single isomer, unassigned) [Ex-4.74, (3S,4S)(2R,3R) or (3S,4S)(2S,3S) or (3R,4R)(2R,3R) or (3R,4R)(2S,3S) or (3R,4R)(2S,3R) or (3R,4R)(2R,3S) or (3S,4S)(2S,3R) or (3S,4S)(2R,3S) 1-[5-chloro-4-({6-chloro-7-[3-fluoro-1-(2-methyloxetan-3-yl)piperidin-4-yl]quinazolin-2-yl}amino)-1H-pyrazol-1-yl]-2-methylpropan-2-ol]",9.19
2,"Cc1c(Nc2ncc3cc(Cl)c(C4CCN(C[C@@H](O)c5ccccc5F)CC4)cc3n2)cnn1C1CC1 [Ex-4.202, (1S)-2-(4-{6-chloro-2-[(1-cyclopropyl-5-methyl-1H-pyrazol-4-yl)amino]quinazolin-7-yl}piperidin-1-yl)-1-(2-fluorophenyl)ethan-1-ol]",8.47
3,"CO[C@H]1COC[C@H]1N1CC[C@@H](c2cc3nc(Nc4cnn(C5CC5(F)F)c4Cl)ncc3cc2C)[C@H](F)C1 (single isomer, unassigned) [Ex-4.244, (R)(3S,4S)(3S,4S) or (R)(3S,4S)(3R,4R) or (R)(3R,4R)(3S,4S) or (R)(3R,4R)(3R,4R) or (S)(3S,4S)(3S,4S) or (S)(3S,4S)(3R,4R) or (S)(3R,4R)(3S,4S) or (S)(3R,4R)(3R,4R) N-[5-chloro-1-(2,2-difluorocyclopropyl)-1H-pyrazol-4-yl]-7-[3-fluoro-1-(4-methoxyoxolan-3-yl)piperidin-4-yl]-6-methylquinazolin-2-amine]",>9.20
4,"CN1CCC(F)(c2cc3nc(Nc4cnn(C5CC5)c4Cl)ncc3cc2Cl)CC1 [Ex-4.36, 6-chloro-N-(5-chloro-1-cyclopropyl-1H-pyrazol-4-yl)-7-(4-fluoro-1-methylpiperidin-4-yl)quinazolin-2-amine]",8.29
5,"Cc1cc2cnc(Nc3cnn(C4CC4)c3Cl)nc2cc1[C@@H]1CCN([C@@]2(C)COC[C@H]2O)C[C@H]1F (single isomer, unassigned) [Ex-4.148, (3S,4S)(3S,4S) or (3S,4S)(3R,4R) or (3R,4R)(3S,4S) or (3R,4R)(3R,4R) 4-(4-{2-[(5-chloro-1-cyclopropyl-1H-pyrazol-4-yl)amino]-6-methylquinazolin-7-yl}-3-fluoropiperidin-1-yl)-4-methyloxolan-3-ol]",>9.20
6,"Cc1cc2cnc(Nc3cnn(C4CC4)c3Cl)nc2cc1[C@H]1CCN(C2COC2)C[C@@H]1F (single isomer, unassigned) [Ex-4.85, (3S,4S) or (3R,4R) N-(5-chloro-1-cyclopropyl-1H-pyrazol-4-yl)-7-[3-fluoro-1-(oxetan-3-yl)piperidin-4-yl]-6-methylquinazolin-2-amine]",8.76
7,"Clc1cc2cnc(Nc3cnn(C4CCC4)c3Cl)nc2cc1C1CCN(C2COC2)CC1 [Ex-4.15, 6-chloro-N-(5-chloro-1-cyclobutyl-1H-pyrazol-4-yl)-7-[1-(oxetan-3-yl)piperidin-4-yl]quinazolin-2-amine]",>9.20
8,"CC1CC(c2cc3nc(Nc4cnn(C5CC5)c4Cl)ncc3cc2Cl)CCN1C1COC1 (single isomer, unassigned) [Ex-4.106, (2S,4S) or (2R,4R) or (2S,4R) or (2R,4S) 6-chloro-N-(5-chloro-1-cyclopropyl-1H-pyrazol-4-yl)-7-(2-methyl-1-(oxetan-3-yl)piperidin-4-yl)quinazolin-2-amine]",>9.20
9,"CN1CC[C@H](c2cc3nc(Nc4cnn(CC(C)(C)O)c4Cl)ncc3cc2Cl)[C@@H](F)C1 (single isomer, unassigned) [Ex-4.23, (3S,4S) or (3R,4R) 1-(5-chloro-4-{[6-chloro-7-(3-fluoro-1-methylpiperidin-4-yl)quinazolin-2-yl]amino}-1H-pyrazol-1-yl)-2-methylpropan-2-ol]",9.08
10,"CC(C)(O)Cn1ncc(Nc2ncc3cc(Cl)c([C@@H]4CCN(C5COC5)C[C@H]4F)cc3n2)c1Cl (single isomer, unassigned) [Ex-4.43, (3S,4S) or (3R,4R) 1-[5-chloro-4-({6-chloro-7-[3-fluoro-1-(oxetan-3-yl)piperidin-4-yl]quinazolin-2-yl}amino)-1H-pyrazol-1-yl]-2-methylpropan-2-ol]",9.16
11,"N#Cc1cc2cnc(Nc3cnn(C4CC4(F)F)c3Cl)nc2cc1[C@H]1CCN(C2COC2)C[C@@H]1F (single isomer, unassigned) [Ex-6.7, (R)(3S,4S) or (S)(3S,4S) or (R)(3R,4R) or (S)(3R,4R) 2-((5-chloro-1-(2,2-difluorocyclopropyl)-1H-pyrazol-4-yl)amino)-7-(3-fluoro-1-(oxetan-3-yl)piperidin-4-yl)quinazoline-6-carbonitrile]",9.01
12,"FC(F)Cn1ncc(Nc2ncc3cc(Cl)c(C4CCNCC4)cc3n2)c1Cl [Ex-4.93, 6-chloro-N-[5-chloro-1-(2,2-difluoroethyl)-1H-pyrazol-4-yl]-7-(piperidin-4-yl)quinazolin-2-amine]",8.70
13,"Clc1cc2cnc(Nc3cnn(C4CC4)c3Cl)nc2cc1C1CCN(C2COC2)CC1 [Ex-8.8, 6-chloro-N-(5-chloro-1-cyclopropyl-1H-pyrazol-4-yl)-7-[1-(oxetan-3-yl)piperidin-4-yl]quinazolin-2-amine]",>9.20
14,"Cc1nn(CC(C)(C)O)cc1Nc1ncc2cc(Cl)c(C3CCN(C4COC4)CC3)cc2n1 [Ex-2.61, 1-[4-({6-chloro-7-[1-(oxetan-3-yl)piperidin-4-yl]quinazolin-2-yl}amino)-3-methyl-1H-pyrazol-1-yl]-2-methylpropan-2-ol]",8.66
15,"O[C@H]1COCC1N1CC[C@@H](c2cc3nc(Nc4cnn(C5CC5)c4Cl)ncc3cc2Cl)[C@H](F)C1 (single isomer, unassigned) [Ex-4.122, (3S,4S)(3S,4S) or (3S,4S)(3R,4R) or (3R,4R)(3S,4S) or (3R,4R)(3R,4R) 4-{6-chloro-2-[(5-chloro-1-cyclopropyl-1H-pyrazol-4-yl)amino]quinazolin-7-yl}-3-fluoropiperidin-1-yl]oxolan-3-ol]",>9.20
16,"Cc1c(Nc2ncc3cc(Cl)c([C@H]4CCN(C5CCCC5O)C[C@@H]4F)cc3n2)cnn1C1CC1 (single isomer, unassigned) [Ex-4.160, (1S,2R)(3S,4S) or (1R,2S)(3S,4S) or (1R,2R)(3S,4S) or (1S,2S)(3S,4S) or (1S,2R)(3R,4R) or (1R,2S)(3R,4R) or (1R,2R)(3R,4R) or (1S,2S)(3R,4R) 2-(4-{6-chloro-2-[(1-cyclopropyl-5-methyl-1H-pyrazol-4-yl)amino]quinazolin-7-yl}-3-fluoropiperidin-1-yl)cyclopentan-1-ol]",>9.20
17,"Cc1c(Nc2ncc3cc(Cl)c(C4CCN([C@]5(C)COC[C@@H]5O)CC4)cc3n2)cnn1C1CC1 (single isomer, unassigned) [Ex-1.16, (3S,4S) or (3R,4R) 4-(4-(6-chloro-2-((1-cyclopropyl-5-methyl-1H-pyrazol-4-yl)amino)quinazolin-7-yl)piperidin-1-yl)-4-methyltetrahydrofuran-3-ol]",>9.20
18,"[2H]C1([2H])OC([2H])([2H])C1N1CCC(c2cc3nc(Nc4cnn(C5CC5)c4Cl)ncc3cc2Cl)CC1 [Ex-8.16, 6-chloro-N-(5-chloro-1-cyclopropyl-1H-pyrazol-4-yl)-7-(1-(oxetan-3-yl-2,2,4,4-d4)piperidin-4-yl)quinazolin-2-amine]",9.18
19,"Cc1c(Nc2ncc3cc(Cl)c(C4CCN(C5COC[C@@H]5O)[C@@H](C)C4)cc3n2)cnn1C1CC1 (single isomer, unassigned) [Ex-4.130, (3S,4S)(2S,4R) or (3S,4S)(2S,4S) or (3R,4R)(2S,4R) or (3R,4R)(2S,4S) (3 4-[4-{6-chloro-2-[(1-cyclopropyl-5-methyl-1H-pyrazol-4-yl)amino]quinazolin-7-yl}-2-methylpiperidin-1-yl]oxolan-3-ol]",8.97
20,"O=S1(=O)CC(N2CC[C@H](c3cc4nc(Nc5cnn(C6CC6)c5Cl)ncc4cc3Cl)[C@@H](F)C2)C1 (single isomer, unassigned)",9.02

# Same assay, conditions: G2019S LRRK2, 134 μM ATP (Km ATP), mean values; read-out: LRRK2 pIC50 (converted)
row,Compound,IC50
1,"Cc1cc2cnc(Nc3cnn(C4CC4(F)F)c3Cl)nc2cc1C1CCN([C@H]2COC[C@H]2O)CC1 (single isomer, unassigned) [Ex-2.33, (R)(3S,4S) or (R)(3R,4R) or (S)(3S,4S) or (S)(3R,4R) 4-[4-(2-{[5-chloro-1-(2,2-difluorocyclopropyl)-1H-pyrazol-4-yl]amino}-6-methylquinazolin-7-yl)piperidin-1-yl]oxolan-3-ol]",< 0.631 nM
2,"Cn1nc(Cl)cc1Nc1ncc2cc(Cl)c(C3CCN([C@@]4(C)COC[C@H]4O)CC3)cc2n1 (single isomer, unassigned) [Ex-10.1, (3S,4S) or (3R,4R) 4-(4-(6-chloro-2-((3-chloro-1-methyl-1H-pyrazol-5-yl)amino)quinazolin-7-yl)piperidin-1-yl)-4-methyltetrahydrofuran-3-ol]",0.776 nM
3,"Cc1c(Nc2ncc3cc(Cl)c(C4CCN(CC(O)CN5CCOC5=O)CC4)cc3n2)cnn1C1CC1 (single isomer, unassigned) [Ex-4.221, (S) or (R) 3-[3-(4-{6-chloro-2-[(1-cyclopropyl-5-methyl-1H-pyrazol-4-yl)amino]quinazolin-7-yl}piperidin-1-yl)-2-hydroxypropyl]-1,3-oxazolidin-2-one]",< 0.631 nM
